In US8937038B2, “Composition containing peptide ligand that bonds with CXCR2 for treating infective and inflammatory diseases” (priority 2010, dated 2015):

How the values were obtained:
[1] = system: bacteria in peritoneal fluids of CLP mice; experiment: In vivo disinfection activity: bacterial colonies in peritoneal fluid after CLP; design: species or system mouse; reference not given here; settings: 24 hours after the CLP; FIG. 10
Protocol: A peritoneal lavage fluid was collected 24 hours after CLP, and incubated at 37° C. overnight in a blood agar base plate (trypticase soy agar Deeps, Becton Dickinson). The number of colony forming units (CFUs) was counted according to a method disclosed in Yan J J et al. 2004 Nat. Med. 10:161-167.
A death rate by CLP is correlated with the number of bacterial colonies in a peritoneal fluid. Therefore, an effect of the Ac-PGP on removal of bacteria in a peritoneal fluid was examined. […] In vitro disinfection activity of the Ac-PGP was examined using neutrophils derived from a mouse. The mouse neutrophils were kept for an hour to phagocytize E. coli, and then stimulated with various concentrations of Ac-PGP (0.1 to 100 nM) for 20 minutes. […] A reactive oxygen species such as hydrogen peroxide was known as an important molecule participating in the disinfection activity. Therefore, an effect of Ac-PGP on production of hydrogen peroxide in the mouse neutrophils was examined. […] To examine a role of CXCR2 in production of hydrogen peroxide by the Ac-PGP, the mouse neutrophils were pretreated with a CXCR2 antagonist (SB225002) before they were treated with the Ac-PGP.

caspase-3 = experiment: Caspase-3 activation in splenocytes of CLP mice (immunohistochemistry); assay type: in vivo, mouse; settings: FIG. 23
Protocol: First, a tissue embedded in paraffin was deparaffinized using a typical histological protocol, and performed digoxigenin-dUTP nick end labeling (TUNEL) analysis. Sections were permeated into the Triton X-100 at 4° C. for 2 minutes, and the sections were flooded in terminal deoxynucleotidyl transferase (TdT) and a TUNEL reagent at 37° C. for 60 minutes. A percentage of apoptotic cells (TUNEL-positive cells) was determined by counting 500 splenocytes under an optical microscope. Also, the tissue embedded in paraffin was deparaffinized using a typical histological protocol, and immunohistochemical analysis was performed on the microtomed sections of caspase-3 (Wang J. et al. 2001 Proc. Natl. Acad. Sci. USA 98:4038-43).
The apoptosis of immune cells is associated with the mortality on sepsis. Here, the CLP was proven to remarkably increase apoptosis of splenocytes (FIG. 22). […] Apoptosis of lymphocytes was induced by activation of some major caspases including caspase-3. Therefore, not only the effect of Ac-PGP on activation of caspase-3 but also the effect of CLP activation by caspase-3 were examined (FIG. 23).

[2] = system: mice into which LPS was intraperitoneally injected; experiment: Survival in LPS-induced sepsis model; assay type: in vivo, mouse; settings: 60 mg/kg LPS intraperitoneally; FIG. 4
Protocol: (§1) Male WT ICR mice were used to evaluate a therapeutic effect of Ac-PGP. IFN-γ-deficient mice (kindly provided by Y. K. Kim at the Pohang University of Science and Technology, Pohang, Republic of Korea) were used for mechanism study. All Examples in which animals were used were performed according to the instructions with permission of the Institutional Review Board (IRB) for the care and management of laboratory animals at Dong-A University. In the case of the CLP, mice were anesthetized with pentothal sodium (50 mg/kg, intraperitoneally injected), and abdomen of each mouse was cut along a central cutting line to expose an appendix. Then, an ileocecal valve of the appendix was tied up, both surfaces of the ileocecal valve were punctured twice with a 22-gauge needle (or punctured once to measure a production amount of cytokines), and the abdomen was sutured. Sham CLP mice were treated in the same manner as described above, except that CLP of the appendix was not performed. A survival rate of the mice was monitored every day for 10 days. In the case of the LPS or E. coli model, E. coli and LPS were intraperitoneally injected at concentrations of 1×10^9 cells/mouse and 60 mg/kg, respectively. A survival rate of the mice was monitored once a day for 10 days.
In another mouse model of sepsis, a therapeutic effect of Ac-PGP was also evaluated.

CLP mice [3] = experiment: Survival of CLP sepsis mice; assay type: in vivo, mouse
Protocol: as §1
An experimental therapeutic effect of Ac-PGP on sepsis was examined in CLP using albino Institute of Cancer Research (ICR) mice. Survival of the mice was monitored for 10 days after CLP. On the second day after the CLP, only 20% of untreated WT mice survived (FIG. 1).
The Ac-PGP was evaluated to determine whether the antiseptic activity of Ac-PGP served through CXCR2 that was a known receptor of Ac-PGP.

CLP mice [4] = experiment: Cytokines in peritoneal fluid after CLP (ELISA); assay type: in vivo, mouse
Protocol: To measure a production amount of cytokines induced by CLP in a peritoneal lavage fluid, mice were provided with Ac-PGP for 2 hours, 14 hours, 26 hours, and 38 hours after CLP. A peritoneal lavage fluid was collected within various time zones between 4 and 72 hours after the CLP, and cytokines present in the peritoneal fluid was measured using ELISA (BD Biosciences Pharmingen).
An effect of the Ac-PGP on a pro-inflammatory cytokine in a peritoneal fluid by CLP was determined from 4 to 72 hours after the CLP. The CLP induced a remarkable increase in levels of pro-inflammatory cytokines (TNF-α, IL-1β and IL-6) within 24 hours (FIGS. 14 to 16). Injection of the Ac-PGP in a sepsis model by the CLP induced a remarkable change in levels of the cytokines. […] To evaluate an effect of the Ac-PGP on production of the pro-inflammatory cytokines by the LPS, in vitro production of TNF-α and IL-6 by the mouse splenocytes was evaluated. Direct release of the TNF-α and IL-6 from the mouse splenocytes by the LPS was suppressed by in vitro treatment with the Ac-PGP (FIGS. 17 and 18).
An effect of the Ac-PGP on levels of Th1 cytokines by CLP in a peritoneal fluid was also determined from 4 to 72 hours after the CLP.

**Q.** What does the source list for acetylated-Pro-Gly-Pro [Ac-PGP]?
**A.** number of bacterial colonies in the peritoneal fluid [1]: 82.1%; activation of caspase-3 (caspase-3): remarkably suppressed; mortality [2]: decreased mortality; survival rate (CLP mice [3]; 17.5 mg/kg injected 3 or 4 times from 2 hours after CLP at an interval of 12 hours, FIG. 2): highly increased; survival rate (CLP mice [3]; CLP mice pretreated with CXCR2-selective antagonist SB225002, FIG. 5): could not improve the survival rate; survival rate (CLP mice [3]; CXCR2-deficient sepsis mice, FIG. 6): could not improve a survival rate; survival rate (CLP mice [3]; administered 4 to 5 times at 17.5 mg/kg): highest increase in survival rate; therapeutic effect (survival) (CLP mice [3]; injected 10 hours after the CLP, FIG. 3): a therapeutic effect was still exhibited; survival of the mice (CLP mice [3]; injection of 7.5, 12.5 or 17.5 mg/kg, compared with PBS-injected control, FIG. 1): remarkably increased survival of the mice; survival rate (CLP mice [3]; subcutaneous administration 2 hours after CLP, various doses, monitored 10 days, FIG. 1): remarkably increased the survival rate in a dose-dependent manner; level of TNF-α in peritoneal fluid (CLP mice [4]; 4 to 72 hours after CLP, FIG. 14): induced a decrease in levels; level of IL-1β in peritoneal fluid (CLP mice [4]; 4 to 72 hours after CLP, FIG. 15): induced a decrease in levels; level of IL-6 in peritoneal fluid (CLP mice [4]; 4 to 72 hours after CLP, FIG. 16): induced a decrease in levels; level of IFN-γ in peritoneal fluid (CLP mice [4]; 4 to 72 hours after CLP, FIG. 19): remarkably increased; level of IL-12p70 in peritoneal fluid (CLP mice [4]; 4 to 72 hours after CLP, FIG. 20): remarkably increased; level of IL-2 in peritoneal fluid (CLP mice [4]; 4 to 72 hours after CLP, FIG. 21): remarkably increased; level of IFN-γ in the peritoneal fluid (CLP mice [4]; 24 hours after the CLP): improved levels; level of IL-12 in the peritoneal fluid (CLP mice [4]; 24 hours after the CLP): improved levels
